Here are results for 22 compounds from US11524010B2, “Substituted quinazoline sulfonamides as thioredoxin interacting protein (TXNIP) inhibitors” (SOUTHERN RESEARCH INSTITUTE, priority 2017, dated 2022).

For one series, the system named is TXNIP. The series can be described thus: Inhibition of glucose-induced endogenous TXNIP expression in INS-1 cells (qRT-PCR). It is filed as cell-based, Rat. Conditions: 25 mM glucose; for inhibition at 1.5 µM / inhibition at 12.5 µM: Rattus norvegicus, INS1, 24 h. As for the experimental part: The Rat INS-1 cell line was obtained from UAB and maintained in RPMI-1640 (Invitrogen #11875) supplemented with 10% fetal bovine serum (FBS), 100 U/ml penicillin and […] streptomycin, 10 mM HEPES, 1 mM Sodium Pyruvate, 50 μM 2-Mercaptoethanol, and 11.1 mM Glucose in a humidified incubator with a 5% C02 atmosphere at 37° C. 4×10^4 cells per well were seeded to 96-well plate and incubated at 37° C. overnight. A subset of the cells were then cultured in medium with 5 mM Glucose for 24 hrs and then treated in medium with 25 mM glucose with or without compounds to be tested for another 24 hrs.
For the primary high throughput screening (HTS) assay, stably transfected, monoclonal INS-1 cells were split using Trypsin (2 ml per T75 flask) and seeded at a density of 10^4/well in a 384-well plate and incubated overnight at low, 5 mM glucose. The next day, the medium was changed to high glucose (25 mM) or high glucose plus the small molecules to be tested and luciferase assays were performed 24 h later. […] For secondary screens, total RNA was extracted from 96-well cultured cells using RNeasy 96 kit (Qiagen #74181) following the manufacturer's protocol using spin technology. Then a one-step qRT-PCR amplification was performed using QuantiFast SYBR Green RT-PCR kit (Qiagen #204154) and was carried out in a 10 μl reaction which consisted of 2 μl RNA, 0.5 μM each of primers (Rat TXNIP 5′ primer: […] (SEQ ID NO:1) and Rat TXNIP 3′ primer: […] (SEQ ID NO:2); Or Rat 18S rRNA 5′ primer: […] (SEQ ID NO:3) and Rat 18S rRNA 3′ primer: […]) (SEQ ID NO:4), 5 μl 2×SYBR Green Master Mix, 0.1 μl 10× QuantiFast RT Mix. The SYBR Green assay was performed using a LightCycler 480 II (Roche Applied Science) with an initial incubation at 50° C. for 10 min for RT followed by denaturation at 95° C. for 5 min. Forty cycles of amplification were performed using a thermal cycling profile of 95° C. for 10s, 60° C. for 30 s. Subsequently, a melting curve was recorded by holding at 95° C. for 60 s, cooling to 60° C. for 60 s, and then heating at 0.11° C./s up to 95° C. The data was collected and analyzed using the LightCycler 480 Software Release 1.5.0 SP3. The relative amount of TXNIP mRNA was normalized to 18 s rRNA level as a housekeeping gene, and the data was analyzed according to the 2^−ΔΔCT method (1). The transformed data was expressed as % inhibition and compound IC50 calculated by a 4-parameter logistic fit of the data using GraphPad Prism 7.
A general note: Real-time PCR tracks product formation cycle by cycle.

Series [1] is described as follows: INS-1 cell viability (Cell Titer-Glo, ATP). It is filed as cell-based, Rat. The conditions noted are these: rat, INS-1 cells, 72 hrs treatment. As to the method:
INS-1 cell viability was determined based on quantification of ATP using Cell Titer-Glo Luminescent Cell Viability Assay kit (Promega #G7572), which indicates the presence of metabolically active cells. Briefly, INS-1 cells were seeded into 96-well plates at a cell density of 4.5×10^4 and 3.5×10^4 cells per well and incubated overnight at 37° C. with 5% CO2. On the following day, cells were treated with compounds for 24 hrs and 72 hrs respectively. Cell Titer-Glo reagent was added to the cells and Luminescence was acquired on Synergy 4 Reader ([…]).

`CC(C)N(CC1CCCN(c2ncnc3ccccc23)C1)S(C)(=O)=O` (centres unmarked) [Compound 40, N-isopropyl-N-((1-(quinazolin-4-yl)piperidin-3-yl)methyl)methanesulfonamide] registered an inhibition at 1.5 µM in the series on TXNIP (1.5 μM compound) of 14%. The compound further registered an inhibition at 12.5 µM in the series with TXNIP (12.5 μM compound) of 46%. Also, the 50% cytotoxic concentration (CC50) at 72 h in series [1] was found to be 70 µM.
Take `O=S(=O)(NCC1CCCN(c2ncnc3ccc(C(F)(F)F)cc23)C1)c1ccccc1` (centres unmarked) [Compound 54, N-((1-(6-(trifluoromethyl)quinazolin-4-yl)piperidin-3-yl)methyl)benzenesulfonamide]: in the series with TXNIP (1.5 μM compound), the inhibition at 1.5 µM worked out at 19%. This compound had an inhibition at 12.5 µM in the series on TXNIP (12.5 μM compound) of 53%. In series [1], the CC50 at 72 h was found to be 17 µM.
As to `CC(C)Nc1nc(N2CCCC(CNS(C)(=O)=O)C2)c2ccccc2n1` (centres unmarked) [Compound 16, N-((1-(2-(isopropylamino)quinazolin-4-yl)piperidin-3-yl)methyl)methanesulfonamide], in the series on TXNIP (1.5 μM compound), testing at 1.5 µM gave an inhibition of 0%. The inhibition at 12.5 µM in the series with TXNIP (12.5 μM compound) was determined as 33%. Also, in series [1], the CC50 at 72 h was greater than 100 µM.
Consider `N#Cc1cc2ncnc(N3CCCC(CNS(=O)(=O)C(F)(F)F)C3)c2cc1F` (centres unmarked) [Compound 53, N-((1-(7-cyano-6-fluoroquinazolin-4-yl)piperidin-3-yl)methyl)-1,1,1-trifluoromethanesulfonamide], for which at 1.5 µM the inhibition with TXNIP (1.5 μM compound) was 7%. The compound further gave an inhibition at 12.5 µM with TXNIP (12.5 μM compound) of 24%. Also, the CC50 at 72 h in series [1] is greater than 100 µM.
Turning to `CS(=O)(=O)NCC1CCCN(c2ncnc3ccc(NC(=O)c4ccccn4)cc23)C1` (centres unmarked) [Compound 28, N-(4-(3-(methylsulfonamidomethyl)piperidin-1-yl)quinazolin-6-yl)picolinamide], in the series with TXNIP (1.5 μM compound), the inhibition at 1.5 µM was 4%. In the series on TXNIP (12.5 μM compound), testing at 12.5 µM gave an inhibition of 5%. Also, the 50% cytotoxic concentration (CC50) at 72 h in series [1] was greater than 100 µM.
As for `CS(=O)(=O)NCC1(O)CCCN(c2ncnc3cc(F)c(C#N)cc23)C1` (centres unmarked) [Compound 49, N-((1-(6-cyano-7-fluoroquinazolin-4-yl)-3-hydroxypiperidin-3-yl)methyl)methanesulfonamide], 1.5 µM produced 2% inhibition in the series on TXNIP (1.5 μM compound). Further, the inhibition at 12.5 µM in the series with TXNIP (12.5 μM compound) was determined as 2%. The CC50 at 72 h in series [1] is greater than 100 µM.
For `CS(=O)(=O)NCC1CCCN(c2ncnc3ccc(S(C)(=O)=O)cc23)C1` (centres unmarked) [Compound 14, N-((1-(6-(methylsulfonyl)quinazolin-4-yl)piperidin-3-yl)methyl)methanesulfonamide], in the series with TXNIP (1.5 μM compound), the inhibition at 1.5 µM amounted to 0%. 12.5 µM produced 24% inhibition with TXNIP (12.5 μM compound). Also, the CC50 at 72 h in series [1] was greater than 100 µM.
In the series on TXNIP (1.5 μM compound), `Cc1cc2ncnc(N3CCCC(CNS(C)(=O)=O)C3)c2cc1F` (centres unmarked) [Compound 22, N-((1-(6-fluoro-7-methylquinazolin-4-yl)piperidin-3-yl)methyl)methanesulfonamide] gave an inhibition at 1.5 µM of 15%. The compound also had an inhibition at 12.5 µM in the series on TXNIP (12.5 μM compound) of 34%. The half-maximal cytotoxic concentration (CC50) at 72 h in series [1] is greater than 100 µM.
In the case of `COc1ccc2ncnc(N3CCCC(CN(C(C)C)S(=O)(=O)c4ccccc4)C3)c2c1` (centres unmarked) [Compound 41, N-isopropyl-N-((1-(6-methoxyquinazolin-4-yl)piperidin-3-yl)methyl)benzene-sulfonamide], in the series with TXNIP (1.5 μM compound), the inhibition at 1.5 µM came to 36%. In addition, the inhibition at 12.5 µM in the series with TXNIP (12.5 μM compound) came out at 65%. Further, in series [1], the 50% cytotoxic concentration (CC50) at 72 h amounted to 7 µM.
For `CS(=O)(=O)NC1CCCN(c2ncnc3cc(F)ccc23)C1` (centres unmarked) [Compound 32, N-(1-(7-fluoroquinazolin-4-yl)piperidin-3-yl)methanesulfonamide] the same measures were 21%, 62% and 65 µM.
In the case of `CS(=O)(=O)NCC1CCCN(c2ncnc3cc(F)c(C#N)cc23)C1.Cl` (centres unmarked) [Compound 29a, N-((1-(6-cyano-7-fluoroquinazolin-4-yl)piperidin-3-yl)methyl)methanesulfonamide hydrochloride], the “TXNIP % Inhibition at 1.5 μM” value with TXNIP (1.5 μM compound, 24 hrs) is reported as 35%. Further, the “TXNIP % Inhibition at 12.5 μM” value in the series with TXNIP (12.5 μM compound, 24 hrs) came to 55%.
In the series on TXNIP (1.5 μM compound), `O=S(=O)(NCC1CCCN(c2ncnc3ccc(C(F)(F)F)cc23)C1)C1CC1` (centres unmarked) [Compound 57, N-((1-(6-(trifluoromethyl)quinazolin-4-yl)piperidin-3-yl)methyl)cyclopropanesulfonamide] came in with an inhibition at 1.5 µM of 33%. This compound gave an inhibition at 12.5 µM in the series with TXNIP (12.5 μM compound) of 67%. For the same compound, in series [1], the CC50 at 72 h turned out to be 43 µM.
`CC(C)(C)C(=O)Nc1ccc2ncnc(N3CCCC(CNS(C)(=O)=O)C3)c2c1` (centres unmarked) [Compound 25, N-(4-(3-(methylsulfonamidomethyl)piperidin-1-yl)quinazolin-6-yl)pivalamide] yielded an inhibition at 1.5 µM with TXNIP (1.5 μM compound) of 28%. The compound also yielded an inhibition at 12.5 µM with TXNIP (12.5 μM compound) of 51%. Further, the half-maximal cytotoxic concentration (CC50) at 72 h in series [1] was greater than 100 µM.
For `CS(=O)(=O)NCC1CCCN(c2ncnc3cc(C(N)=O)c(F)cc23)C1` (centres unmarked) [Compound 21, 6-fluoro-4-(3-(methylsulfonamidomethyl)piperidin-1-yl)quinazoline-7-carboxamide], in that order: 0%, 12% and greater than 100 µM.
For `CS(=O)(=O)NCC1CCCN(c2nc(O)nc3ccc(C(F)(F)F)cc23)C1` (centres unmarked) [Compound 62, N-((1-(2-hydroxy-6-(trifluoromethyl)quinazolin-4-yl)piperidin-3-yl)methyl)methanesulfonamide], in that order: 20%, 20% and greater than 100 µM.
With `CS(=O)(=O)NCC1CCCN(c2ncnc3cc(F)c(F)cc23)C1` (centres unmarked) [Compound 7, N-((1-(6,7-difluoroquinazolin-4-yl)piperidin-3-l)methyl)methanesulfonamide], the inhibition at 1.5 µM with TXNIP (1.5 μM compound) amounted to 40%. In the series with TXNIP (12.5 μM compound), this compound yielded an inhibition at 12.5 µM of 54%. For the same compound, the CC50 at 72 h in series [1] is greater than 100 µM.
In the series with TXNIP (1.5 μM compound), `CS(=O)(=O)NCC1CCCN(c2ncnc3c(F)cccc23)C1` (centres unmarked) [Compound 3, N-((1-(8-fluoroquinazolin-4-yl)piperidin-3-yl)methyl)methanesulfonamide] showed an inhibition at 1.5 µM of 4%. For the same compound, testing at 12.5 µM with TXNIP (12.5 μM compound) gave an inhibition of 59%. Further, in series [1], the CC50 at 72 h was greater than 100 µM.
For `CS(=O)(=O)NCC1CCCN(c2nc[n+]([O-])c3ccc(C(F)(F)F)cc23)C1` (centres unmarked) [Compound 61, 4-(3-(methylsulfonamidomethyl)piperidin-1-yl)-6-(trifluoromethyl)quinazoline 1-oxide], the inhibition at 1.5 µM in the series with TXNIP (1.5 μM compound) came to 2%. The inhibition at 12.5 µM in the series with TXNIP (12.5 μM compound) came to 25%. In series [1], the half-maximal cytotoxic concentration (CC50) at 72 h is greater than 100 µM.
`O=S(=O)(NCC1CCCN(c2ncnc3ccc(F)cc23)C1)C1CC1` (centres unmarked) [Compound 58, N-((1-(6-fluoroquinazolin-4-yl)piperidin-3-yl)methyl)cyclopropanesulfonamide]: in the series on TXNIP (1.5 μM compound), the inhibition at 1.5 µM worked out at 15%. Testing at 12.5 µM in the series with TXNIP (12.5 μM compound) gave an inhibition of 65%. In series [1], the CC50 at 72 h was determined as 57 µM.
Regarding `CS(=O)(=O)NCC1CCCCN1c1ncnc2cc(C#N)c(F)cc12` (centres unmarked) [Compound 43, N-((1-(7-cyano-6-fluoroquinazolin-4-yl)piperidin-2-yl)methyl)methane-sulfonamide], at 1.5 µM the inhibition with TXNIP (1.5 μM compound) was 0%. This compound yielded an inhibition at 12.5 µM in the series with TXNIP (12.5 μM compound) of 16%. Also, the CC50 at 72 h in series [1] is greater than 100 µM.
For `O=S(=O)(NCC1CCCN(c2ncnc3ccc(F)cc23)C1)N1CCOCC1` (centres unmarked) [Compound 60, N-((1-(6-fluoroquinazolin-4-yl)piperidin-3-yl)methyl)morpholine-4-sulfonamide], in that order: 32%, 56% and 16 µM.
Turning to `CS(=O)(=O)NCC1CCCN(c2ncnc3cc(C(F)(F)F)ccc23)C1` (centres unmarked) [Compound 12, N-((1-(7-(trifluoromethyl)quinazolin-4-yl)piperidin-3-yl)methyl)methanesulfonamide], at 1.5 µM the inhibition in the series with TXNIP (1.5 μM compound) was 0%. This compound had an inhibition at 12.5 µM in the series with TXNIP (12.5 μM compound) of 13%. Besides, the CC50 at 72 h in series [1] is greater than 100 µM.

For orientation: inhibition means the share of the control response that was lost under treatment. High values mean strong suppression, low ones little suppression. A word on the CC50: it is the concentration that lowers cell viability or growth by half.
